Positions of bridges follow the written chain, without caps; N, C: chain ends. Non-standard residues stand in square brackets, D forms with d. Residues, ends and D or L forms follow the SMILES beside them. *: point of attachment. 5FAM = O=C1OC2(c3ccc(O)cc3Oc3cc(O)ccc32)c2ccc(C(=O)*)cc21; βAla = NCCC(=O)O
What was measured:
TmrAB [1] = assay: Conformational epitope test, CP^F anisotropy with TmrAB and SDS; type: binding, Thermus thermophilus
Protocol: In order to analyze the binding affinity and specificity of CPs to TmrAB, we established a fluorescence polarization assay. Fluorescein-labeled CP^Fs were incubated with increasing concentrations of TmrAB reconstituted in liposomes at a protein-to-lipid ratio of 1:20 (w/w). […] To address whether the CPs recognize a linear or non-linear epitope, we examined the binding of CP^Fs after disrupting the quaternary and tertiary structure of TmrAB complexes by adding anionic detergent SDS.
Figure 2. […] (A, B) Equilibrium binding analysis. Fluorescence anisotropy of CP^Fs (50 nM) was determined at λex/em = 485/520 nm with increasing concentrations of TmrAB which was reconstituted in liposomes. TmrAB concentrations were calculated based on the random (50/50%) orientation in proteoliposomes ([Stefan et al., 2020]). As a control, equal amounts of empty liposomes were added to CP^Fs (dashed lines, open symbols). The difference in fluorescence polarization was normalized to free (0%) and 100% bound CP^F. Mean values ± SD (n = 3) are shown, and data were analyzed by a one-site binding model. […] Streptavidin beads loaded with CP14^B (1 µM) were mixed with purified TmrAB (60 nM) for 1 hr at 4°C. Beads were washed and bound TmrAB was eluted by adding SDS loading buffer for 10 min at 95°C. Amounts of TmrA in input (I), flow-through (FT), wash fraction (W), and eluate (E) were analyzed by SDS-PAGE and immunoblotting (α-His). Beads without CP^B served as negative control (right panel). (D) One-step purification of TmrAB via immobilized CP14^B matrices. Streptavidin-agarose beads were loaded with CP14^B (1 µM) and mixed with DDM-solubilized membranes of E. coli containing TmrAB as described in (C). Bound TmrAB was eluted in SDS loading buffer and analyzed by SDS-PAGE (silver stain). (E) Native mass spectrometry. TmrAB (4 µM) was buffer exchanged to ESI buffer and incubated with a 2-fold molar excess of CP14^F for 10 min on ice. Protein complexes were investigated by ESI-TOF-mass spectrometry. […] Figure 2—source data 1. Source data for Figure 2. Figure 2—figure supplement 1. […] (A) CP^Bs-mediated isolation of solubilized TmrAB. Streptavidin matrices were loaded with CP^Bs (1 µM) and incubated with purified TmrAB (60 nM) for 1 hr at 4°C. Beads without CP^Bs served as control (see Figure 2C). Bound TmrAB complexes were eluted by the addition of SDS loading buffer for 10 min at 95°C. TmrAB in input (I), flow-through (FT), washing fraction (W), and eluate (E) was analyzed by SDS-PAGE and immunoblotting (α-His). (B) Isolation of TmrAB using CP13^B. Streptavidin matrices were loaded with CP13^B (1 µM) and mixed with DDM-solubilized membranes of E. coli expressing TmrAB as described in (A). Bound TmrAB complexes were eluted in SDS loading buffer and analyzed by SDS-PAGE (silver stain). (C) Formation of CP^F-TmrAB complexes. DDM-solubilized TmrAB (1 µM) was incubated with CP12^F, CP13^F, CP14^F (2 µM each), or CP6^F (5 µM) for 10 min on ice. CP^F-TmrAB complexes were analyzed by gel filtration. […] (D) Conformational epitopes. CP^Fs (50 nM) were incubated with TmrAB (0.6 µM for CP6^F and CP13^F, 0.7 µM for CP12^F, 0.5 µM for CP14^F) in the presence of 1% (v/v) SDS. Fluorescence anisotropy was determined at λex/em = 485/520 nm. […] Figure 2—figure supplement 1—source data 1. Source Data for Figure 2—figure supplement 1. [drawing 2] Figure 2—figure supplement 2. Analysis of CP^F-TmrAB complexes by native mass spectrometry.

TmrAB [2] = assay: Competition of CP^F binding by substrate peptides (fluorescence anisotropy); set-up: species or system Thermus thermophilus
Description: To elucidate the mechanistic basis for the inhibition of ATP hydrolysis and substrate transport, we investigated the effects of CPs on substrate binding. In the first approach, fluorescent CP^Fs were used as reporters in fluorescence polarization. […] In addition, we examined the impact of CP^Bs on ATP binding to TmrAB by scintillation proximity assays (SPA) (Figure 4C). […] Taken together, CPs are high-affinity allosteric inhibitors of TmrAB that leave ATP binding and substrate interaction largely unaffected, while impairing ATP hydrolysis and substrate translocation across the membrane.
Figure 4. […] (A) CP^Fs binding TmrAB is not affected by substrate peptide binding. […] For competition, C4^ATTO655 peptide (2 µM) or R9LQK peptide (200 µM) were added. (B) Binding of C4F peptide is not affected by CP^Bs. C4F peptides (50 nM) were mixed with TmrAB (4 µM), and fluorescence anisotropy was monitored as described in (A). For competition, C4^ATTO655 (10 µM) or CP^Bs (6 µM) were added. […] TmrAB (0.2 µM) were immobilized on SPA beads and incubated with ATP (3 μM, traced with ^3H-ATP) in the presence and absence of CP^Bs (1 µM each) for 30 min on ice. ATP binding was monitored by SPA. Background values were determined after releasing TmrAB complexes from the beads by adding imidazole (200 mM). The background signal in the absence of CP^Bs was set to 0 cpm. […] As this is an equilibrium experiment, this can be rationalized by the fact that CP13 stabilizes the ATP-bound OF conformer. Figure 4—source data 1. Source data for Figure 4.
To determine equilibrium binding constants, CP^Fs (50 nM) were incubated with increasing concentrations of TmrAB-containing or empty liposomes. To probe the conformational selectivity, CP^Fs (50 nM) were mixed with detergent-solubilized IF TmrAB or OF TmrA^EQB. Before, OF TmrA^EQB was nucleotide-trapped by incubation with ATP (1 mM) and MgCl2 (3 mM) in the absence of CP^Fs for 5 min at 45°C. […] For peptide competition studies, RRYC^fluoresceinKSTEL (C4F, 50 nM) were incubated with detergent-solubilized TmrAB (4 µM), CP^Bs (6 µM), or C4^ATTO655 (10 µM). […] Fluorescence anisotropy was analyzed at λex/em of 485/520 nm using a microplate reader (CLARIOstar, BMG LABTECH). Fluorescence anisotropy was calculated using:(1) r=I||−I⊥/I||+2⋅I⊥ with I||: parallel intensity and I⊥: perpendicular intensity. Binding of CP^Fs were fitted by a one-site binding model (Langmuir 1:1) using:(2) Y=Bmax∙[L]/KD+[L] with Y: binding, Bmax: maximal binding, KD: equilibrium dissociation constant, and [L]: ligand concentration. Data represent mean ± SD from three experiments.

[3] = listed as CPF: CP^F 50 nM alone
[4] = listed as SDS: CP^F 50 nM + TmrAB + 1% (v/v) SDS
[5] = listed as TmrAB: CP^F 50 nM + TmrAB (0.6 µM CP6^F/CP13^F, 0.7 µM CP12^F, 0.5 µM CP14^F)
[6] = CP^F 50 nM + TmrAB + competitor C4^ATTO655 peptide 2 µM
[7] = CP^F 50 nM + TmrAB + competitor R9LQK peptide 200 µM
[8] = listed as -: CP^F 50 nM before addition of TmrAB
[9] = listed as TmrAB: CP^F 50 nM + TmrAB 0.5-0.7 µM, no competitor

Structure (SMILES)	Fluorescence anisotropy (TmrAB [1]; [3])	Fluorescence anisotropy (TmrAB [1]; [4])	Fluorescence anisotropy (TmrAB [1]; [5])	Bound CP^F, fluorescence anisotropy (TmrAB [2]; [6])	Bound CP^F, fluorescence anisotropy (TmrAB [2]; [7])	Bound CP^F, fluorescence anisotropy (TmrAB [2]; [8])	Bound CP^F, fluorescence anisotropy (TmrAB [2]; [9])
CC(C)[C@@H]1NC(=O)[C@H](Cc2ccccc2)NC(=O)[C@@H]2CCCN2C(=O)[C@H](CC(N)=O)NC(=O)[C@H](Cc2c[nH]c3ccccc23)NC(=O)[C@H](C(C)C)NC(=O)[C@H](Cc2ccc(O)cc2)NC(=O)[C@H](Cc2ccccc2)NC(=O)[C@@H](Cc2ccc(O)cc2)NC(=O)CSC[C@@H](C(=O)NCC(=O)N[C@@H](CO)C(=O)NCCC(=O)NCCC(=O)N[C@@H](CCCNC(=N)N)C(=O)N[C@@H](CCCCNC(=O)c2ccc3c(c2)C(=O)OC32c3ccc(O)cc3Oc3cc(O)ccc32)C(N)=O)NC(=O)[C@H](CCCCN)NC(=O)[C@H](Cc2ccccc2)NC1=O [CP14] ({CH2CO}-[dY]FYVWNPFVFKCGS[βAla][βAla]RK(5FAM)-NH2; thioether N-12; C-terminus assumed)	0.0267	0.0311	0.1410	0.143	0.140	0.027	0.141
CC[C@H](C)[C@@H]1NC(=O)[C@H]([C@@H](C)O)NC(=O)[C@H](CC(C)C)NC(=O)[C@H](Cc2c[nH]c3ccccc23)NC(=O)[C@H](Cc2ccccc2)NC(=O)[C@H](CC(N)=O)NC(=O)[C@H](CCC(=O)O)NC(=O)[C@H](CC(C)C)NC(=O)[C@H](CS)NC(=O)[C@H](Cc2c[nH]cn2)NC(=O)[C@H](CO)NC(=O)[C@@H](Cc2ccc(O)cc2)NC(=O)CSC[C@@H](C(=O)NCC(=O)N[C@@H](CO)C(=O)NCCC(=O)NCCC(=O)N[C@@H](CCCNC(=N)N)C(=O)N[C@@H](CCCCNC(=O)c2ccc3c(c2)C(=O)OC32c3ccc(O)cc3Oc3cc(O)ccc32)C(N)=O)NC(=O)[C@H](CC(C)C)NC1=O [CP6] ({CH2CO}-[dY]SHCLENFWLTILCGS[βAla][βAla]RK(5FAM)-NH2; thioether N-14)	0.0222	0.0146	0.1093	0.109	0.101	0.022	0.111
CC(C)C[C@@H]1NC(=O)[C@H](Cc2ccccc2)NC(=O)CNC(=O)[C@H](CO)NC(=O)[C@H](Cc2ccccc2)NC(=O)[C@H](CC(=O)O)NC(=O)[C@@H]2CCCN2C(=O)[C@H]([C@@H](C)O)NC(=O)[C@@H](Cc2ccc(O)cc2)NC(=O)CSC[C@@H](C(=O)NCC(=O)N[C@@H](CO)C(=O)NCCC(=O)NCCC(=O)N[C@@H](CCCNC(=N)N)C(=O)N[C@@H](CCCCNC(=O)c2ccc3c(c2)C(=O)OC32c3ccc(O)cc3Oc3cc(O)ccc32)C(N)=O)NC(=O)[C@H](C)NC(=O)[C@H](CC(N)=O)NC(=O)[C@H](CCCNC(=N)N)NC(=O)[C@H](CC(C)C)NC(=O)[C@H](Cc2ccccc2)NC(=O)[C@H](C)NC1=O [CP12] ({CH2CO}-[dY]TPDFSGFLAFLRNACGS[βAla][βAla]RK(5FAM)-NH2; thioether N-16)	0.0250	0.0265	0.1604	0.160	0.155	0.025	0.168
CC[C@H](C)[C@@H]1NC(=O)[C@H](Cc2c[nH]c3ccccc23)NC(=O)[C@H](CC(N)=O)NC(=O)[C@H](C)NC(=O)[C@H](CO)NC(=O)[C@@H]2CCCN2C(=O)[C@H](CC(=O)O)NC(=O)[C@@H](Cc2ccc(O)cc2)NC(=O)CSC[C@@H](C(=O)NCC(=O)N[C@@H](CO)C(=O)NCCC(=O)NCCC(=O)N[C@@H](CCCNC(=N)N)C(=O)N[C@@H](CCCCNC(=O)c2ccc3c(c2)C(=O)OC32c3ccc(O)cc3Oc3cc(O)ccc32)C(N)=O)NC(=O)[C@H]([C@@H](C)O)NC(=O)[C@H](CC(C)C)NC(=O)[C@H](CC(C)C)NC(=O)[C@H](C(C)C)NC(=O)[C@H](CC(C)C)NC1=O [CP13] ({CH2CO}-[dY]DPSANWILVLLTCGS[βAla][βAla]RK(5FAM)-NH2; thioether N-14; C-terminus assumed)	0.0252	0.0310	0.1217	0.122	0.123	0.025	0.127
